{"source": "patent US10350240B2", "about": "“Lanthanum carbonate hydroxide, lanthanum oxycarbonate and methods of their manufacture and use” (Spectrum Pharmaceuticals, Inc., priority 2010, dated 2019)", "key": {"[1]": {"conditions": "at 10 minutes, pH 3, FIG. 20 of the '782 patent; cited from earlier work"}, "BET surface area": {"assay": "BET surface area", "type": "physicochemical", "conditions": "for Surface Area, BET Surface area (m^2/g): nitrogen adsorbate; for BET surface area of the material tested: material tested in FIG. 10", "source_text": "(§1) By “relatively greater” it is meant that if the processes of the '782 patent and those of the present invention were run under generally identical conditions but with, for example, ammonium carbonate or bicarbonate used instead of sodium carbonate, the surface area, as measured by BET or otherwise, of the LCH or lanthanum oxycarbonates of the present invention would be even higher than that resulting from the practice of the '782 patent. The ammonium carbonate process of the present invention should yield BET surface areas (SA) in the 1 to 100 m^2/g range for LCH. […] To this end, as used herein “relatively greater BET surface area” refers to the greater BET surface area of the LDOC compound of the present invention when compared to the respective compound in U.S. Pat. No. 7,588,782 when made using similar ingredients, and under similar conditions but using the process described in that patent. As noted above, both processes are capable of producing very fine particles/high surface area. Again without wishing to be bound by any particular theory of operation, it may be that the greater porosity of the materials resulting from the present invention may effectively increase the overall surface area (or more reactive surfaces) allowing for, inter alia, improved binding kinetics. This is predicated on the porosity of individual or primary particles, not aggregates. Thus, it is believed that the primary particles of the invention provide relatively greater porosity than would be measured for particles made in accordance with the '782 patent. […] Furthermore, “porosity” as used herein means cumulative adsorption pore volume determined using a static pressure surface area analyzer with nitrogen as the adsorbate and calculating the pore size by The Barrett, Joyner, and Halenda (BJH) method (Barrett E. P., Loyner L. G. and Halenda P. P., The determination of pore volume and area distributions in porous substances. I. Computations from nitrogen isotherms, J. Am. Chem. Soc. 73 (1951) pp. 373-380).\nAs contemplated herein, BET surface area of the lanthanum compounds disclosed herein may be determined as provided in U.S. Pat. No. 7,588,782."}, "[2]": {"assay": "Porosity (BJH pore volume, pore size; nitrogen adsorption, Micromeritics TriStar 3000)", "type": "physicochemical", "conditions": "for Pore Size, Adsorption pore diameter (nm): BJH adsorption; for Pore volume, Adsorption (cumulative) (cm^3/g) / Surface Area, Adsorption (cumulative) (m^2/g): BJH adsorption cumulative; for Pore Size, Desorption pore diameter (nm): BJH desorption; for Pore volume, Desorption (cumulative) (cm^3/g) / Surface Area, Desorption (cumulative) (m^2/g): BJH desorption cumulative; for Pore volume, Total-<6.4182 nM (cm^3/g): pores <6.4182 nM", "source_text": "as §1\n“Pore volume” as used herein refers to the cumulative adsorption pore volume. In one embodiment, the cumulative adsorption pore volume of the LDOC of the present invention is at least 0.015 cm^3/g. In another embodiment, it is at least 0.020 cm^3/g.\nThe porosity of the LDOC compound referred to herein as RZB-014 was analyzed and compared to that of the LDH and LDOC compounds of the '782 patent discussed above on a Micromeritics TriStar 3000 static pressure surface area analyzer using nitrogen as the adsorbate. The Barrett, Joyner, and Halenda (BJH) method was used to calculate pore size. This method uses the Kelvin model of pore filling and applies only to the mesopore (internal width between approximately 2 and 50 nm) and small macropore size range (internal width between 50 nm and approximately 300 nm)."}, "Bulk density": {"assay": "Bulk density", "type": "physicochemical", "conditions": "Renazorb-013 (LCH), second block", "protocol": "Bulk density in accordance with the invention can be determined by standard methods.\nGraduated Cylinder Tare Weight was determined to be 225 g. 75 grams of sample was sieved into the graduated cylinder. The Gross Weight was determined to be 299.4 g. The volume of this sample was measured to be 141 mL. Thus, the Bulk Density of the powder is: Bulk Density (g/cc)=(299.4−225)/141=74.4/141=0.5277 g/cc Rounding this value to two decimal places gives a final reported value of 0.53 g/cc. 9.2 RSD=(R1−R2)×100/R1 where: RSD=Relative Standard Deviation (%) R1 & R2=Result of individual repeat (g/cc) 9.3 SR=R×100/V where: SR=Standard Recovery (%) R=Result for Reference Standard (g/cc) V=Historical average for standard (g/cc)"}, "[3]": {"assay": "Phosphate binding kinetics at constant pH, ICP-OES (FIG. 10)", "conditions": "for phosphate binding at a pH of 3 or below: comparison of both LDOC materials; for amount of phosphate bound in 60 minutes: pH of about 6.5, 60 minutes, FIG. 10", "source_text": "FIG. 10 provides a graphical representation of the binding kinetics of LCH and a lanthanum oxycarbonate in accordance with the '782 patent (RZB-011, RZB-012), and LCH/La2O2CO3 produced in accordance with the present invention (RZB-013 and RZB-014) at 10, 20, 30, 40, […]\nIt is preferred that the amount of polymorph 037-0804 exceeds that of any other polymorph by weight. In one embodiment, the amount of polymorph 037-0804 is more than 50% of all polymorphs present and, in another embodiment, at least 90% of the polymorphs present of LDOC is La2O2CO3. In another embodiment, polymorph 037-0804 (La2O2CO3) is present in an amount of at least 95% by weight relative to other polymorphs and in still another embodiment, at least 99% by weight. It has also been determined that the phosphate binding kinetic of LDOC resulting from the present invention versus LDOC resulting from the process of the '782 patent are different as well. […] In one embodiment, therefore, the lanthanum oxycarbonate and, in another embodiment, the LDOC of the inventions have a binding kinetic at pH 6.5 at 60 minutes, of at least 150 mg PO4 per gram of lanthanum oxycarbonate/LDOC. In another embodiment, the lanthanum oxycarbonate and LDOC of the invention have a binding kinetic of at least about 180 mg PO4 per gram compound and in still a further embodiment, at least about 200 mg PO4 per gram compound. The BET surface area of the material tested was 6-7 m^2/g for RZB012 (lanthanum oxycarbonate in accordance with the '782 patent) and was about 33.9 for La2O2CO3 in accordance with the invention. Moreover, it is believed that the porosity, bulk density and flow characteristics of LDOC made in accordance with the present invention surpassed those made in accordance with the teachings of the '782 patent.\nPhosphate binding kinetics and binding capacity as illustrated in FIG. 10 as described herein (particularly with regard to RZB-012) can be measured as follows:\nStock phosphate solution (0.00527 mol PO43—per Liter—500 mg PO43—per Liter)\n3. Using a graduated cylinder measure out 1.0 L of the stock phosphate solution\n4. Add the phosphate solution to a 1.5 L Pyrex beaker. The beaker should be sufficiently large to contain the phosphate solution and allow for a 30% volume increase\n5. Run at ambient […] or 37° C. as indicated in the analytical request. If 37° C. is requested place the 1.5 L beaker containing the 1.0 L of test solution on a temperature controlled hot plate. Set temperature to 37° C. […] 6. Stir the solution constantly using an electric stirrer equipped with an impeller. Stir rate should be […] (verify with tachometer). 7. Using a 10 ml syringe remove 5 mls of solution and dispense it into a labeled sample tube. This is the T=0 sample 8. […]"}}}
{"compound": "lanthanum tricarbonate tetrahydrate", "values": [{"measurement": "percent of the available phosphate bound", "setting": "[1]", "value": "about 40%"}]}
{"compound": "O=C([O-])[O-].[La+3].[La+3].[O-2].[O-2]", "note": "[RZB-14 (264314)]", "values": [{"measurement": "Surface Area, BET Surface area (m^2/g)", "setting": "BET surface area", "value": 32.0039, "unit": "m^2/g"}, {"measurement": "Pore Size, Average pore width (nm)", "setting": "[2]", "value": 3.404, "unit": "nm"}, {"measurement": "Pore Size, Adsorption pore diameter (nm)", "setting": "[2]", "value": 5.7595, "unit": "nm"}, {"measurement": "Pore volume, Adsorption (cumulative) (cm^3/g)", "setting": "[2]", "value": 0.0499, "unit": "cm^3/g"}, {"measurement": "Surface Area, Adsorption (cumulative) (m^2/g)", "setting": "[2]", "value": 34.6533, "unit": "m^2/g"}, {"measurement": "Pore Size, Desorption pore diameter (nm)", "setting": "[2]", "value": 6.0183, "unit": "nm"}, {"measurement": "Pore volume, Desorption (cumulative) (cm^3/g)", "setting": "[2]", "value": 0.05346, "unit": "cm^3/g"}, {"measurement": "Surface Area, Desorption (cumulative) (m^2/g)", "setting": "[2]", "value": 35.5324, "unit": "m^2/g"}, {"measurement": "Pore volume, Total-<6.4182 nM (cm^3/g)", "setting": "[2]", "value": 0.02724, "unit": "cm^3/g"}]}
{"compound": "O=C([O-])[O-].[La+3].[OH-]", "note": "[RZB-011, lanthanum carbonate hydroxide]", "values": [{"measurement": "pore diameter comparison", "setting": "[2]", "value": "not much difference in the values of pore diameter"}]}
{"compound": "O=C([O-])[O-].[La+3].[OH-]", "note": "[Batch 101008, lanthanum carbonate hydroxide]", "values": [{"measurement": "Surface Area", "setting": "BET surface area; Renazorb-013 (LCH), second block of experiments", "value": 14.3, "unit": "m^2/g"}, {"measurement": "Bulk Density", "setting": "Bulk density", "value": 0.15, "unit": "g/cc"}]}
{"compound": "O=C([O-])[O-].[La+3].[La+3].[O-2].[O-2]", "note": "[RZB-14 (264317)]", "values": [{"measurement": "Surface Area, BET Surface area (m^2/g)", "setting": "BET surface area", "value": 25.3032, "unit": "m^2/g"}, {"measurement": "Pore Size, Average pore width (nm)", "setting": "[2]", "value": 4.699, "unit": "nm"}, {"measurement": "Pore Size, Adsorption pore diameter (nm)", "setting": "[2]", "value": 5.5584, "unit": "nm"}, {"measurement": "Pore volume, Adsorption (cumulative) (cm^3/g)", "setting": "[2]", "value": 0.03991, "unit": "cm^3/g"}, {"measurement": "Surface Area, Adsorption (cumulative) (m^2/g)", "setting": "[2]", "value": 28.7342, "unit": "m^2/g"}, {"measurement": "Pore Size, Desorption pore diameter (nm)", "setting": "[2]", "value": 4.8008, "unit": "nm"}, {"measurement": "Pore volume, Desorption (cumulative) (cm^3/g)", "setting": "[2]", "value": 0.04068, "unit": "cm^3/g"}, {"measurement": "Surface Area, Desorption (cumulative) (m^2/g)", "setting": "[2]", "value": 33.8946, "unit": "m^2/g"}, {"measurement": "Pore volume, Total-<6.4182 nM (cm^3/g)", "setting": "[2]", "value": 0.02973, "unit": "cm^3/g"}]}
{"compound": "lanthanum oxycarbonate [RZB-012, reference compound]", "values": [{"measurement": "phosphate binding at a pH of 3 or below", "setting": "[3]", "value": "about the same"}, {"measurement": "amount of phosphate bound in 60 minutes", "setting": "[3]", "value": "about 118 mg PO4 bound per gram of compound"}, {"measurement": "BET surface area of the material tested", "setting": "BET surface area", "value": "6-7 m^2/g"}, {"measurement": "pore diameter comparison", "setting": "[2]", "value": "not much difference in the values of pore diameter"}]}
{"compound": "O=C([O-])[O-].[La+3].[La+3].[O-2].[O-2]", "note": "[RZB-014, Lanthanum dioxycarbonate]", "values": [{"measurement": "phosphate binding at a pH of 3 or below", "setting": "[3]", "value": "about the same"}, {"measurement": "amount of phosphate bound in 60 minutes", "setting": "[3]", "value": "approximately 240 mg PO4 bound per gram of compound"}, {"measurement": "BET surface area of the material tested", "setting": "BET surface area", "value": "about 33.9 m^2/g"}, {"measurement": "pore diameter comparison", "setting": "[2]", "value": "not much difference in the values of pore diameter"}, {"measurement": "pore volume compared with RZB-12 and RZB-11", "setting": "[2]; both lots of RZB-14", "value": "much higher pore volumes than RZB-12 and slightly bigger pore volume than RZB-11"}, {"measurement": "surface area compared with RZB-11 & 12", "setting": "[2]; two lots of RZB-14", "value": "greater"}]}
